Calls of active or inactive are those of the source.
How the values were obtained:
[1] = molecular target: 1-phosphatidylinositol 4,5-bisphosphate phosphodiesterase gamma-1 (Homo sapiens, UniProt P19174); assay: Counterscreen for inhibitors of phospholipase C isozymes (PLC-B3): Fluorescence-based biochemical high throughput dose response assay to identify inhibitors of phospholipase C isozymes (PLC-gamma1).
[2] = molecular target: 1-phosphatidylinositol 4,5-bisphosphate phosphodiesterase beta-3 (Homo sapiens, UniProt Q01970); assay: Fluorescence-based biochemical high throughput dose response assay to identify inhibitors of phospholipase C isozymes (PLC-B3).
fMet-Leu-Phe receptor = fMet-Leu-Phe receptor (Homo sapiens, UniProt P21462); assay: FPR ligands, dose response (AID 519); type: functional
H9c2 = assay: cells; type: functional, cell-based; details: Rattus norvegicus, H9c2, Myocardium;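 note: confirmatory concentration-response retest of ultra-high-throughput screening hits for modulation of myocardial damage; cell death induced by hydrogen peroxide oxidative stress; compound pretreatment for 60 min then peroxide exposure for 2 h; potency is for protecting the cells against peroxide damage rather than for killing them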
[3] = molecular target: Histone-lysine N-methyltransferase NSD2 (Homo sapiens, UniProt O96028); type: biochemical
[4] = molecular target: T1, Heat shock factor protein 1 (Mus musculus, UniProt P38532); assay: HSF1 potentiators in luciferase reporter cells, confirmation, cell-based, NIH3T3, luminescence, dose retest (AID 435004); type: functional;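 note: stress induced by proteasome inhibitor MG132 added 30 min after compound; luciferase reporter driven by HSF1 response element in NIH3T3 cells; actives raise luminescence as potentiators of the MG132 stress response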
T1 sequence (P38532 whole entry): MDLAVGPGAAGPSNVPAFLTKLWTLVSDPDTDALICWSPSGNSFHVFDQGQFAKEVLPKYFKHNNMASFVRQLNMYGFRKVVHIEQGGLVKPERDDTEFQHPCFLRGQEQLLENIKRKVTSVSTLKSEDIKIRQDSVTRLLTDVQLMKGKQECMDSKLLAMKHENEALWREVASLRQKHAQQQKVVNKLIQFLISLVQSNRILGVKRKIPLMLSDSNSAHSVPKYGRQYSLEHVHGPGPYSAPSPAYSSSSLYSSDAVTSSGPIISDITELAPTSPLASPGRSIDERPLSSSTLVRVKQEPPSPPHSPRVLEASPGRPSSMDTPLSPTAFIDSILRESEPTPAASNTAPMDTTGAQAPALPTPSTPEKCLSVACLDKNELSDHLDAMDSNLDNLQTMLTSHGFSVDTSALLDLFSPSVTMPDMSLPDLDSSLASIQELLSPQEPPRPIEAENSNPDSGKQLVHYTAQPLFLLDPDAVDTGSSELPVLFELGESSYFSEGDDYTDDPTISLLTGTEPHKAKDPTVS

cells [5] = type: functional, cell-based
[6] = molecular target: T2, Trace amine-associated receptor 1 (Homo sapiens, UniProt Q96RJ0); assay: Counterscreen for agonists of the human trace amine associated receptor 1 (hTAAR1): Fluorescence-based cell-based high throughput dose response assay to identify hTAAR1 agonist that also desensitize TAAR1 receptor response.; type: functional
T2 sequence (Q96RJ0 whole entry): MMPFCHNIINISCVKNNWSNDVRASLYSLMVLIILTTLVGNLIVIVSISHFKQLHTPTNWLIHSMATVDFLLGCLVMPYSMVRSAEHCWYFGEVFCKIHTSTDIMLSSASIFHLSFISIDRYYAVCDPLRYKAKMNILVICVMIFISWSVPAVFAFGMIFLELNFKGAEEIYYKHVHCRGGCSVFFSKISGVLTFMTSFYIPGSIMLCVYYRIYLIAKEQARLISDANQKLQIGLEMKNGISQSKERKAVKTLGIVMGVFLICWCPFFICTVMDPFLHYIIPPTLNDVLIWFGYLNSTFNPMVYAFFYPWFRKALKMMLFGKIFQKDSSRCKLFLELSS

[7] = molecular target: T2, Trace amine-associated receptor 1; assay: Fluorescence-based cell-based high throughput dose response assay to identify agonists of the human trace amine associated receptor 1 (TAAR1).; type: functional
cells [8] = type: functional, cell-based; remark: listed apart in the source
[9] = HEK293T cytotoxicity, dose response, cytotoxicity control for miR-122 modulator project, cell-based, activator set, cherry-pick (AID 720690); type: functional;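 note: HEK293T human cells scored for general mammalian cytotoxicity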
[10] = miR-122 activators in hepatoma reporter cells, dose response, cell-based, Huh7 psiCHECK-miR122, Renilla luciferase, cherry-picked (AID 651956); type: functional;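 note: huh7 hepatoma cells stably carrying a psiCHECK-2 miR-122 sensor plasmid; renilla luciferase signal reporting endogenous miR-122 activity after 48 h compound exposure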
[11] = cytotoxicity in OVCAR8 ovarian cancer cells, dose response, PAX8 project, cell-based, plate reader, dry powder samples (AID 743197); type: functional; details: OVCAR-8
[12] = non-specific cell cytotoxicity, dose response, cytotoxicity control for PAX8 inhibitor project, plate reader, dry powder samples (AID 743021); type: functional, cell-based
[13] = IGROV1 ovarian cancer cell cytotoxicity, dose response, PAX8 inhibitor project, plate reader, dry powder samples (AID 743043); type: functional, cell-based; details: IGROV-1
Paired box protein Pax-8 = Paired box protein Pax-8 (Homo sapiens, UniProt Q06710); assay: inhibitors of PAX8-driven TPO luciferase reporter, dose response, RMG-I cells, cherry-pick (AID 687027); type: functional, cell-based;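 note: luciferase reporter driven by Pax8 target thyroperoxidase promoter measured by SteadyGlo luminescence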
[14] = NIH:OVCAR-3 ovarian cancer cell cytotoxicity, dose response, PAX8 inhibitor project, plate reader, dry powder samples (AID 743044); type: functional, cell-based
[15] = A549 cell cytotoxicity, dose response, cytotoxicity control, cherry-picks, 26 µM top dose (AID 1053119); type: functional, cell-based
[16] = HepG2 cell cytotoxicity, dose response, cytotoxicity control, cherry-picks, set 5 (AID 1053118); type: functional, cell-based
[17] = HEK293 cell cytotoxicity, dose response, cytotoxicity control, cherry-picks, set 5 (AID 1053117); type: functional, cell-based
[18] = P. falciparum Dd2 growth inhibitors, dose response, SYBR Green, cherry-picked samples (AID 1159567); type: functional, cell-based
[19] = HepG2 cell cytotoxicity, dose response, cytotoxicity control, cherry-picked samples (AID 1159577); type: functional, cell-based
[20] = molecular target: Potassium channel subfamily K member 9 (Homo sapiens, UniProt Q9NPC2); assay: TASK3 (KCNK9) channel inhibitors, thallium flux, SAR follow-up, selectivity assay for TASK1 inhibitor project, cell-based, FluxOR thallium flux, concentration-response (AID 652211); type: functional;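 note: potency is for inhibitors of the channel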
[21] = inhibitors of fibronectin matrix deposition, dose response, AH1F cells, Alexa488-FN fluorescence, cherry-picks (AID 1035475); type: functional, cell-based
Protein RecA = molecular target: T3, Protein RecA (Mycobacterium tuberculosis, UniProt P9WHJ3); assay: Fluorescence Cell-Free Homogeneous Dose Retest to Identify Inhibitors of RecA-Intein Splicing Activity. [Related pubchem assays (depositor defined):AID2097, AID2223, AID489010, AID492950]; type: functional
T3 sequence (P9WHJ3 whole entry): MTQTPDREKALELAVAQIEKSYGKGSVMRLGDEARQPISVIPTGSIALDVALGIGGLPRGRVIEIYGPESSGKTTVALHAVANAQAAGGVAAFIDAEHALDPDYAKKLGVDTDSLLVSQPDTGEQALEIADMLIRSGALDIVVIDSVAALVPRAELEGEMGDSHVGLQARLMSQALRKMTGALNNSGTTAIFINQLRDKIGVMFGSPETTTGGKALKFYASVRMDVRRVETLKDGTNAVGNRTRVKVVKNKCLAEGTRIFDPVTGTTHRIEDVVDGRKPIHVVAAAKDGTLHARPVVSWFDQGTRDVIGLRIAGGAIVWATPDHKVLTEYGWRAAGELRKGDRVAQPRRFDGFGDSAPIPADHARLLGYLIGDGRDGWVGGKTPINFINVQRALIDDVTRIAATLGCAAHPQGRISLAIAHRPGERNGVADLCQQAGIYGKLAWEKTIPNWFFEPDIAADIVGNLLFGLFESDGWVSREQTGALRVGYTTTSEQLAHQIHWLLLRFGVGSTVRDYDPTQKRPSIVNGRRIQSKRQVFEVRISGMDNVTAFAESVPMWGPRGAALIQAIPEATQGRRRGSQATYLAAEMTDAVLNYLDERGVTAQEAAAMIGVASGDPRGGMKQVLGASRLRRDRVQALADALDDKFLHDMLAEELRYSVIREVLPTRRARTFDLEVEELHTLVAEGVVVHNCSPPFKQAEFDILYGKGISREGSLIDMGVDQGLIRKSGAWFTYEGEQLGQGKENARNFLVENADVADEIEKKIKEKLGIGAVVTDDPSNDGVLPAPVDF

[22] = molecular target: T4, Replicative DNA helicase DnaB (Mycobacterium tuberculosis, UniProt P9WMR3); assay: DnaB intein splicing inhibitors, dose response, biochemical, cell-free fluorescence (AID 449749); type: functional
T4 sequence (P9WMR3 whole entry): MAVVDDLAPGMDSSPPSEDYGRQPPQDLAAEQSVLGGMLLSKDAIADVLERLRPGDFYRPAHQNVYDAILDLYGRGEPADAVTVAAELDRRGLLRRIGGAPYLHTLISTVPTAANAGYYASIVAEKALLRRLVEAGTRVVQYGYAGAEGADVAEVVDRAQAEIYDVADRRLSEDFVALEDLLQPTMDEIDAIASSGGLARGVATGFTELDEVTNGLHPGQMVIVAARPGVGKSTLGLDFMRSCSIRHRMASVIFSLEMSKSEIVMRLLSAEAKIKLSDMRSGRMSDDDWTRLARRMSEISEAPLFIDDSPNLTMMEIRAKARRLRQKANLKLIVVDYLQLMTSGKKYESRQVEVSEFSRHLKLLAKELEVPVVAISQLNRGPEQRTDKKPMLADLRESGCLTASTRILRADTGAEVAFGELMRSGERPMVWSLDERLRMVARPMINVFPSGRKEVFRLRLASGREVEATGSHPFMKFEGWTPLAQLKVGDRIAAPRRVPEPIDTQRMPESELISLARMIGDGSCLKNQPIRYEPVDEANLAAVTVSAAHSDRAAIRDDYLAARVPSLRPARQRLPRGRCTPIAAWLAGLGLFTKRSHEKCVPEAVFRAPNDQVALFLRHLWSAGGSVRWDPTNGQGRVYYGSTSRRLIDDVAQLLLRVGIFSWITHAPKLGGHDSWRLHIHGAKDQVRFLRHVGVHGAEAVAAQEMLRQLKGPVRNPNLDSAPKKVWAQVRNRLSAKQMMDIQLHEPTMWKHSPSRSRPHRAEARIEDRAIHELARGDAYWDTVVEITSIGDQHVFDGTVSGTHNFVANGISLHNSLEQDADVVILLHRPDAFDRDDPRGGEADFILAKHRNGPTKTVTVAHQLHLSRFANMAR

[23] = molecular target: T5, Sentrin-specific protease 8 (Homo sapiens, UniProt Q96LD8); type: functional
T5 sequence (Q96LD8 whole entry): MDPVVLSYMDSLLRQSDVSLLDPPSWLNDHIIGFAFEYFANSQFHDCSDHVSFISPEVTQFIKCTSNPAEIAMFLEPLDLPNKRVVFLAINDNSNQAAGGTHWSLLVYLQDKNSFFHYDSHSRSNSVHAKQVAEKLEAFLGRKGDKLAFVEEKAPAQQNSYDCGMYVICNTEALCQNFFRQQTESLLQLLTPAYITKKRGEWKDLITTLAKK

[24] = molecular target: T5, Sentrin-specific protease 8; type: functional; remark: listed apart in the source
[25] = molecular target: T1, Heat shock factor protein 1; assay: inhibition of MG132-induced HSE-luciferase signal, confirmation, cell-based, NIH3T3, luminescence, dose retest (AID 2382); type: functional;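 note: NIH3T3 fibroblasts with HSF1-driven luciferase reporter stressed by proteasome inhibitor MG132; luminescence from HSF1-driven luciferase expression after 8 hours of MG132 stress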
[26] = molecular target: Tyrosyl-DNA phosphodiesterase 2 (Homo sapiens, UniProt O95551); assay: human TDP2 enzyme inhibitors, dose response, biochemical, epi absorbance, IC50 (AID 743297)
Tyrosyl-DNA phosphodiesterase 2, sequence (O95551 whole entry): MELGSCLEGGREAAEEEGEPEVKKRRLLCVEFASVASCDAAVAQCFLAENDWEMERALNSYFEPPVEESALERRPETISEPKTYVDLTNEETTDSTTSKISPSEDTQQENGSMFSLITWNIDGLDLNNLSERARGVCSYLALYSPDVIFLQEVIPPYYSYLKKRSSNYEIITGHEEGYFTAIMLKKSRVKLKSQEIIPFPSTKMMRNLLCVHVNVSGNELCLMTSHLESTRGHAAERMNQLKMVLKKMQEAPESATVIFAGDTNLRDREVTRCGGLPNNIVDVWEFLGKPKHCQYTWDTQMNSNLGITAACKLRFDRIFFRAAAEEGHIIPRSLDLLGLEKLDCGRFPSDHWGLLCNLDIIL

1-phosphatidylinositol 4,5-bisphosphate phosphodiesterase beta-3, sequence (Q01970 whole entry): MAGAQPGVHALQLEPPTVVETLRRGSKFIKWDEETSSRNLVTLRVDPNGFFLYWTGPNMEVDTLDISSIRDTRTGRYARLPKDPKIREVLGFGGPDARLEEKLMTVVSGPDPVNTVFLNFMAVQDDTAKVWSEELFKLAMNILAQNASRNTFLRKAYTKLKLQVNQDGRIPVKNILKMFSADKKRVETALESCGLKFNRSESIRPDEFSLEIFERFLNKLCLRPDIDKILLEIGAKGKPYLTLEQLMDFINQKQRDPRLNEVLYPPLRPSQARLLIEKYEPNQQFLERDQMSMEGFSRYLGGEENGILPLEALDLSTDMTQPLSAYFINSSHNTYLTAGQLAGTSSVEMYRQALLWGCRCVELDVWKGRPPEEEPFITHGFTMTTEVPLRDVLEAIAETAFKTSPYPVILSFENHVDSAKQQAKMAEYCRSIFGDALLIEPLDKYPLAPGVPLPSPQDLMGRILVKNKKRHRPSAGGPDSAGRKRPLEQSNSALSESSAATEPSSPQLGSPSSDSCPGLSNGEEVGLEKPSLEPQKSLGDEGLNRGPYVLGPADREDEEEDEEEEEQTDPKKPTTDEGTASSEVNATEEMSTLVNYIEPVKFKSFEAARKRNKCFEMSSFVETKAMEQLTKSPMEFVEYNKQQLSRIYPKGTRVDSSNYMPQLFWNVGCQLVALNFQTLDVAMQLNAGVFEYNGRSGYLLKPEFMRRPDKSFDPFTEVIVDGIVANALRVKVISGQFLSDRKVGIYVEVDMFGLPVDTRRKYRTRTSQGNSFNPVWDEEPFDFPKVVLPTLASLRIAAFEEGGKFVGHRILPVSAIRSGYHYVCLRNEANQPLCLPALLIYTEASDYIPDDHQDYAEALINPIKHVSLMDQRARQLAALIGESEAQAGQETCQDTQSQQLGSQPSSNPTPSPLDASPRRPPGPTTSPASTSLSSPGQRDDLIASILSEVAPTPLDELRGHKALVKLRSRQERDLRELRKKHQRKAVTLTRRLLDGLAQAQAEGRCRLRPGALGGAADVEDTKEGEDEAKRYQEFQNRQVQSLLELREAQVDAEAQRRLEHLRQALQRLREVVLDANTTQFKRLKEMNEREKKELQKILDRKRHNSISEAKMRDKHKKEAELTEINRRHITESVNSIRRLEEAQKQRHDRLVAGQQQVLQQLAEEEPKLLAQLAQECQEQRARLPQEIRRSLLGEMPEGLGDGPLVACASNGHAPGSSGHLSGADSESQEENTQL
fMet-Leu-Phe receptor, sequence (P21462 whole entry): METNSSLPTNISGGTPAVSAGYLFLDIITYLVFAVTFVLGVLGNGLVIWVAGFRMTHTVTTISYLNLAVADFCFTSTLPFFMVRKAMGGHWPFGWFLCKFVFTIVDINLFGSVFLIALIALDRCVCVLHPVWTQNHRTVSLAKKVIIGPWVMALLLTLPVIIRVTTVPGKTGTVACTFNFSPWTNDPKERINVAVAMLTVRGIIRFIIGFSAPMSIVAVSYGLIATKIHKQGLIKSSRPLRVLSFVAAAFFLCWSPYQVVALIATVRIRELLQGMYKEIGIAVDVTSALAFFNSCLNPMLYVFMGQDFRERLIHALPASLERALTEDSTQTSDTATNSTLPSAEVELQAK
1-phosphatidylinositol 4,5-bisphosphate phosphodiesterase gamma-1, sequence (P19174 whole entry): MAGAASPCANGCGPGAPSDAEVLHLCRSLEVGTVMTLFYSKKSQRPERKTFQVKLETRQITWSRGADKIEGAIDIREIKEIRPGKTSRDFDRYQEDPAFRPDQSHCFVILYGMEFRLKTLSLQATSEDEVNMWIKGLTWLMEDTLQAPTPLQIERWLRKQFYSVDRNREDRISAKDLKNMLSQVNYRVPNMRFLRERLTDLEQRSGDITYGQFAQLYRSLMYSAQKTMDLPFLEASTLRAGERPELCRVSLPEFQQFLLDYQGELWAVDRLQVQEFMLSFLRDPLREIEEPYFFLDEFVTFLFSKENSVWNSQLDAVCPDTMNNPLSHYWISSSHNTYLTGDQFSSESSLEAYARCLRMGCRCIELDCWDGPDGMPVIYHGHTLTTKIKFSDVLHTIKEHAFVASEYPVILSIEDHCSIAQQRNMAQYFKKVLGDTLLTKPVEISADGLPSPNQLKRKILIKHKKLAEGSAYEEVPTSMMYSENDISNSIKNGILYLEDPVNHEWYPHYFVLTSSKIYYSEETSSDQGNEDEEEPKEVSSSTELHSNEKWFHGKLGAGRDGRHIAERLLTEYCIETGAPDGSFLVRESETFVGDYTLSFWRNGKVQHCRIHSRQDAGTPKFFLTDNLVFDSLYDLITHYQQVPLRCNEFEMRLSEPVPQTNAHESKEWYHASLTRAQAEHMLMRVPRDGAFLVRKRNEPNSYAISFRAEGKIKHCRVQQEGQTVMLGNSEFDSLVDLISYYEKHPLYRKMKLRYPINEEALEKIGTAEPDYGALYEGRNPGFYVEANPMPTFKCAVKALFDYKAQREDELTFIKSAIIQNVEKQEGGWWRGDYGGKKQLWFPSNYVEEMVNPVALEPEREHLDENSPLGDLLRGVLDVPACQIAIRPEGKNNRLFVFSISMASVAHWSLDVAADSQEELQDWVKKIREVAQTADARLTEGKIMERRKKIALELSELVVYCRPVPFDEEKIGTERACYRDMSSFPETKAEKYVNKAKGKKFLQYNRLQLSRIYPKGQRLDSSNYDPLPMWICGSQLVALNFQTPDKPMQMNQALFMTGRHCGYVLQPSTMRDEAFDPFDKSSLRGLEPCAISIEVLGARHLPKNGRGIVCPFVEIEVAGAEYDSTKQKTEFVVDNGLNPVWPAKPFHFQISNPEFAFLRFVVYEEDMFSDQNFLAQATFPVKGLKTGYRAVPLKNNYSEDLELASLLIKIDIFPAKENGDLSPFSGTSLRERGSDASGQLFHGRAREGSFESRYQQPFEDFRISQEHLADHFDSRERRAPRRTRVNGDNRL
Potassium channel subfamily K member 9, sequence (Q9NPC2 whole entry): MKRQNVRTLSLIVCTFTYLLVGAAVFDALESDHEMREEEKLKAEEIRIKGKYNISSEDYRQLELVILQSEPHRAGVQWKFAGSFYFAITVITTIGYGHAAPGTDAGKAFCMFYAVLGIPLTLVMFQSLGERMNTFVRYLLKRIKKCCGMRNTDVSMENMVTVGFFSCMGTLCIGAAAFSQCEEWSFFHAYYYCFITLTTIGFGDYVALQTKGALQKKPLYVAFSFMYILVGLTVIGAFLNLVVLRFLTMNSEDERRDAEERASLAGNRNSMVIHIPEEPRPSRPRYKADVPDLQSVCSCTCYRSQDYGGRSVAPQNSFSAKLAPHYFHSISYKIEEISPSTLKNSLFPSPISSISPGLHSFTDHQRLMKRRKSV
Paired box protein Pax-8, sequence (Q06710 whole entry): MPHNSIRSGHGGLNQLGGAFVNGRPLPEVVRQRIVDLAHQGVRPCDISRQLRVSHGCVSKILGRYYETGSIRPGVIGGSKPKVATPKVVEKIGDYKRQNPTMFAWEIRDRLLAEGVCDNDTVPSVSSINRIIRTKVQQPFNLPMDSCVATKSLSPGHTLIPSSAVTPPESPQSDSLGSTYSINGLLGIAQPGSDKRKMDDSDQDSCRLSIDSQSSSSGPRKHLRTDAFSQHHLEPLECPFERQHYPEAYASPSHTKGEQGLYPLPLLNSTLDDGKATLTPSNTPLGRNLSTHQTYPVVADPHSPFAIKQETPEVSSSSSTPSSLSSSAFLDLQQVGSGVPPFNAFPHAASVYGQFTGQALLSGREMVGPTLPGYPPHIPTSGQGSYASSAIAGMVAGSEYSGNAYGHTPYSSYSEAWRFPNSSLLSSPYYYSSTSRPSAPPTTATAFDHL

O=S(=O)(c1ccc(Cl)cc1)c1cnc2ccccc2n1
IC50 [1]: > 123 µM (inactive)
IC50 [2]: > 123 µM (inactive)

C/C(=C1/SC(N2CCCC2)=NC1=O)c1ccc(Br)cc1
Ki (fMet-Leu-Phe receptor): > 66.7 µM (inactive)

O=C(CN1CCN(S(=O)(=O)c2ccc(Br)cc2)CC1)c1ccc(O)c(O)c1
IC50 (H9c2): > 79 µM (inactive)
AC50 [3]: 8.3 µM (active)

CCOC(=O)CSc1nnc(Cn2c(=O)sc3ccccc32)n1-c1ccccc1C
IC50 [1]: > 122 µM (inactive)
IC50 [2]: > 122 µM (inactive)

c1ccc2c3c([nH]c2c1)CCNC3
EC50 [4]: > 260 µM (inactive)
EC50 (cells [5]): > 29.9 µM (inactive)
IC50 [6]: 1.77 µM (active)
EC50 [7]: 412 nM (active)
IC50 (cells [8]): > 29.9 µM (inactive)

CCOc1ccc(C2C(C(=O)c3ccco3)=C(O)C(=O)N2Cc2cccnc2)cc1 (stereo not given)
Ki (fMet-Leu-Phe receptor): 15.3 µM (inactive)

COc1ccc(NC(=O)N2CCCCN3[C@H](CO)[C@H](c4ccc(C#CCC(C)C)cc4)[C@H]3C2)cc1
AC50 [9]: 16 µM (active)
AC50 [10]: 7.68 µM (active)

CN1C(=O)c2cc(NC(=O)c3ccc(C(F)(F)F)cc3)ccc2OC[C@@H]2O[C@H](CC(=O)NCc3ccc4c(c3)OCO4)CC[C@H]21
AC50 [9]: 34.9 µM (active)
AC50 [10]: 53.6 µM (active)

COc1ccc(-c2ccc3c(c2)[C@H]2[C@H](CCN2S(=O)(=O)c2ccc(F)cc2)[C@H](CO)N3C)cc1
AC50 [11]: 31.8 µM (active)
AC50 [12]: 63.7 µM (active)
AC50 [13]: 34.4 µM (active)
AC50 (Paired box protein Pax-8): 8.98 µM (active)
AC50 [14]: 19.3 µM (active)

CO[C@@H]1CN(C)C(=O)c2cc(NC(=O)Nc3ccc(Cl)c(Cl)c3)ccc2OC[C@@H](C)NC[C@@H]1C
AC50 [15]: > 52 µM (inactive)
AC50 [16]: > 52 µM (inactive)
AC50 [17]: 45.9 µM (active)
AC50 [18]: 5.7 µM (active)
AC50 [19]: 18.2 µM (active)

Cc1cccc(C(=O)Nc2cccc(NC(=O)c3cccc(C)c3)c2)c1
IC50 [20]: 990 nM (active)

O=S(=O)(c1cccc(F)c1)N1CC[C@@H]2[C@H](CO)Nc3ccc(-c4cccc(F)c4)cc3[C@@H]21
AC50 [15]: 33.4 µM (active)
AC50 [16]: 42 µM (active)
AC50 [17]: 27.2 µM (active)
AC50 [21]: > 70 µM (inactive)

C[C@@H]1CN([C@@H](C)CO)C(=O)c2cc(NC(=O)C3CCCCC3)ccc2O[C@H]1CN(C)Cc1ccc(-c2ccccc2)cc1
AC50 [17]: > 52 µM (inactive)
AC50 [21]: 30.9 µM (active)

Nn1cnnc1N/N=C/c1ccc(Cl)c([N+](=O)[O-])c1
EC50 (Protein RecA): 10.3 µM (active)
AC50 [22]: 18.1 µM (active)
IC50 [23]: 21.7 µM (active)
IC50 [24]: 23.2 µM (active)
EC50 [25]: 10.2 µM (active)
IC50 [26]: 81.2 µM (inactive)

Reference: ChEMBL document CHEMBL1201862, “PubChem BioAssay data set” (2004)
